Source: patent US20170232083A1, “METHODS OF DIAGNOSIS AND TREATMENT OF CELIAC DISEASE IN CHILDREN” (priority 2014, published 2017)

Tested on: PBMC (polyclonal gluten-specific T cells) of paediatric and adult CD patients
Assay: IFN-γ ELISpot of PBMC after 3 day oral wheat challenge (SFU, % of maximal peptide response, dominance scores, EC50; Examples 5-6)
Type: cell-based, human
Conditions: for IFN-γ ELISpot response: after oral wheat challenge; for Cross-reactive T cell response: following wheat challenge
[1] = subject I (3-5yrs/6-10yrs part)
[2] = subject J (3-5yrs/6-10yrs part)
[3] = subject K (3-5yrs/6-10yrs part)
[4] = subject V (3-5yrs/6-10yrs part)
[5] = subject W (3-5yrs/6-10yrs part)
[6] = subject Y (3-5yrs/6-10yrs part)
[7] = subject five (3-5yrs/6-10yrs part)
[8] = subject seven (3-5yrs/6-10yrs part)
[9] = subject six (3-5yrs/6-10yrs part)
[10] = subject ten (3-5yrs/6-10yrs part)
[11] = subject two (3-5yrs/6-10yrs part)

QPFPQPEQPFPWQP
IFN-γ ELISpot response (patient A, 11-17 yrs, cut-off 10 SFU): 3.5 SFU | Significant response as percentage of maximal peptide SFU (patient D, max peptide 30.5 SFU): + (>70% = +) | IFN-γ ELISpot response (patient E, H, 11-17 yrs, cut-off 10 SFU): 44 SFU | Significant response as percentage of maximal peptide SFU (patient E, max peptide 224 SFU): ′ (11-20% = ′) | IFN-γ ELISpot response (patient F, 11-17 yrs, cut-off 10 SFU): 84.5 SFU | Significant response as percentage of maximal peptide SFU (patient F, max peptide 178 SFU): ′′′ (41-70% = ′′′) | IFN-γ ELISpot response (patient G, 11-17 yrs, cut-off 10 SFU): 8 SFU | IFN-γ ELISpot response (patient H (HLA-DQ2.5 homozygote), 3-5yrs, cut-off 10 SFU): 27.5 SFU | IFN-γ ELISpot response (patient H, 11-17 yrs, cut-off 10 SFU): 8.5 SFU | IFN-γ ELISpot response (patient ID not given, 11-17 yrs, cut-off 10 SFU): 67.5 SFU | Significant response as percentage of maximal peptide SFU (patient ID not given, max peptide 95 SFU): + (>70% = +) | Significant response as percentage of maximal peptide SFU (patient II, max peptide 15 SFU): + (>70% = +) | Significant response as percentage of maximal peptide SFU (patient J, max peptide 196 SFU): ′′′ (41-70% = ′′′) | Significant response as percentage of maximal peptide SFU (patient K, max peptide 53 SFU): ′′ (21-40% = ′′) | Significant response as percentage of maximal peptide SFU (patient M, max peptide 48 SFU): ′′′ (41-70% = ′′′) | IFN-γ ELISpot response (patient N, 3-5yrs, cut-off 10 SFU): 7 SFU | IFN-γ ELISpot response (patient P, 11-17 yrs, cut-off 21.6 SFU): 20 SFU | IFN-γ ELISpot response (patient Q, 11-17 yrs, cut-off 10 SFU): 63 SFU | IFN-γ ELISpot response (patient U, H, 11-17 yrs, cut-off 10 SFU): 17 SFU | Significant response as percentage of maximal peptide SFU (patient U, max peptide 81 SFU): ′′ (21-40% = ′′) | IFN-γ ELISpot response (patient V, 6-10 yrs, cut-off 10 SFU): 25 SFU | Significant response as percentage of maximal peptide SFU (patient V, max peptide 35 SFU): + (>70% = +) | IFN-γ ELISpot response (patient Y, 6-10 yrs, cut-off 10 SFU): 10 SFU | Significant response as percentage of maximal peptide SFU (patient Y, max peptide 16 SFU): ′′′ (41-70% = ′′′) | Significant response as percentage of maximal peptide SFU (patient Z, max peptide 13 SFU): + (>70% = +) | IFN-γ ELISpot response (patient eleven, 6-10 yrs, cut-off 10 SFU): 20.5 SFU | Significant response as percentage of maximal peptide SFU (patient eleven, max peptide 57 SFU): ′′ (21-40% = ′′) | Significant response as percentage of maximal peptide SFU (patient five, max peptide 48 SFU): + (>70% = +) | IFN-γ ELISpot response (patient four, 3-5yrs, cut-off 10 SFU): 28.5 SFU | Significant response as percentage of maximal peptide SFU (patient four, max peptide 44 SFU): ′′′ (41-70% = ′′′) | IFN-γ ELISpot response (patient seven, 6-10 yrs, cut-off 10.5 SFU): 11 SFU | Significant response as percentage of maximal peptide SFU (patient seven, max peptide 27 SFU): ′′′ (41-70% = ′′′) | IFN-γ ELISpot response (patient six, 3-5yrs, cut-off 10 SFU): 10 SFU | Significant response as percentage of maximal peptide SFU (patient six, max peptide 13 SFU): + (>70% = +) | IFN-γ ELISpot response (patient ten, 3-5yrs, cut-off 10 SFU): 14.5 SFU | Significant response as percentage of maximal peptide SFU (patient ten, max peptide 14.5 SFU): + (>70% = +) | IFN-γ ELISpot response (patient three, 6-10 yrs, cut-off 10.5 SFU): 95 SFU | IFN-γ ELISpot response (patient twelve, 11-17 yrs, cut-off 10 SFU): 30.5 SFU | IFN-γ ELISpot response (patient two, 3-5yrs, cut-off 10 SFU): 52.5 SFU | Significant response as percentage of maximal peptide SFU (patient two, max peptide 60 SFU): + (>70% = +) | Cross-reactive T cell response (subject A, 11-17yrs): 15 SFU | Significant response as a percentage of maximal peptide SFU (subject D, 11-17yrs): + (>70% = +) | Cross-reactive T cell response (subject D, 11-17yrs): 30.5 SFU | Significant response as a percentage of maximal peptide SFU (subject E, 11-17yrs): ′ (11-20% = ′) | Cross-reactive T cell response (subject E, 11-17yrs): 44 SFU | Significant response as a percentage of maximal peptide SFU (subject F, 11-17yrs): ′′′ (41-70% = ′′′) | Cross-reactive T cell response (subject F, 11-17yrs): 845 SFU | Cross-reactive T cell response (subject G, 11-17yrs): 8 SFU | Cross-reactive T cell response (subject H): 8.5 SFU | Cross-reactive T cell response [1]: 5.5 SFU | Cross-reactive T cell response [2]: 95- SFU | Significant response as a percentage of maximal peptide SFU (subject K): ′′ (21-40% = ′′) | Cross-reactive T cell response [3]: 18.5 SFU | Cross-reactive T cell response (subject P, 11-17yrs): 20 SFU | Significant response as a percentage of maximal peptide SFU (subject Q, 11-17yrs): ′′′ (41-70% = ′′′) | Cross-reactive T cell response (subject Q, 11-17yrs): 63 SFU | Cross-reactive T cell response (subject T, 11-17yrs): 67.5 SFU | Significant response as a percentage of maximal peptide SFU (subject U, 11-17yrs): ′′ (21-40% = ′′) | Cross-reactive T cell response (subject U, 11-17yrs): 17 SFU | Significant response as a percentage of maximal peptide SFU (subject V): + (>70% = +) | Cross-reactive T cell response [4]: 25 SFU | Cross-reactive T cell response [5]: 9 SFU | Cross-reactive T cell response [6]: 10- SFU | Significant response as a percentage of maximal peptide SFU (subject five): + (>70% = +) | Cross-reactive T cell response [7]: 40.5 SFU | Cross-reactive T cell response (subject nine, 11-17yrs): 15 SFU | Significant response as a percentage of maximal peptide SFU (subject seven): ′′ (21-40% = ′′) | Cross-reactive T cell response [8]: 11 SFU | Significant response as a percentage of maximal peptide SFU (subject six): + (>70% = +) | Cross-reactive T cell response [9]: 10 SFU | Significant response as a percentage of maximal peptide SFU (subject ten): + (>70% = +) | Cross-reactive T cell response [10]: 14.5 SFU | Significant response as a percentage of maximal peptide SFU (subject two): + (>70% = +) | Cross-reactive T cell response [11]: 52.5 SFU

QPFPQPEQPFRQQ
Cross-reactive T cell response (subject A, 11-17yrs): 1 SFU | Significant response as a percentage of maximal peptide SFU (subject D, 11-17yrs): ′′′ (41-70% = ′′′) | Cross-reactive T cell response (subject D, 11-17yrs): 15 SFU | Significant response as a percentage of maximal peptide SFU (subject E, 11-17yrs): ′ (11-20% = ′) | Cross-reactive T cell response (subject E, 11-17yrs): 37 SFU | Significant response as a percentage of maximal peptide SFU (subject F, 11-17yrs): ′ (11-20% = ′) | Cross-reactive T cell response (subject F, 11-17yrs): 21 SFU | Cross-reactive T cell response (subject G, 11-17yrs): 3 SFU | Cross-reactive T cell response (subject H): 0 SFU | Cross-reactive T cell response [1]: 4 SFU | Significant response as a percentage of maximal peptide SFU (subject J): (6-10% - ^) | Cross-reactive T cell response [2]: 15 SFU | Significant response as a percentage of maximal peptide SFU (subject K): ′′ (21-40% = ′′) | Cross-reactive T cell response [3]: 21 SFU | Cross-reactive T cell response (subject P, 11-17yrs): 16 SFU | Significant response as a percentage of maximal peptide SFU (subject Q, 11-17yrs): ′′′ (41-70% = ′′′) | Cross-reactive T cell response (subject Q, 11-17yrs): 44 SFU | Significant response as a percentage of maximal peptide SFU (subject T, 11-17yrs): ′′′ (41-70% = ′′′) | Cross-reactive T cell response (subject T, 11-17yrs): 58 SFU | Significant response as a percentage of maximal peptide SFU (subject U, 11-17yrs): ′′ (21-40% = ′′) | Cross-reactive T cell response (subject U, 11-17yrs): 21 SFU | Significant response as a percentage of maximal peptide SFU (subject V): ′′′ (41-70% = ′′′) | Cross-reactive T cell response [4]: 20 SFU | Cross-reactive T cell response [5]: 8 SFU | Cross-reactive T cell response [6]: 8 SFU | Significant response as a percentage of maximal peptide SFU (subject five): + (>70% = +) | Cross-reactive T cell response [7]: 37 SFU | Cross-reactive T cell response (subject nine, 11-17yrs): 0 SFU | Cross-reactive T cell response [8]: 6 SFU | Cross-reactive T cell response [9]: 5 SFU | Cross-reactive T cell response [10]: 6 SFU | Significant response as a percentage of maximal peptide SFU (subject two): ′′ (21-40% = ′′) | Cross-reactive T cell response [11]: 24 SFU

QPFPQPEQPFSWQ
Cross-reactive T cell response (subject A, 11-17yrs): 0 SFU | Significant response as a percentage of maximal peptide SFU (subject D, 11-17yrs): ′′′ (41-70% = ′′′) | Cross-reactive T cell response (subject D, 11-17yrs): 16 SFU | Significant response as a percentage of maximal peptide SFU (subject E, 11-17yrs): ′ (11-20% = ′) | Cross-reactive T cell response (subject E, 11-17yrs): 34 SFU | Significant response as a percentage of maximal peptide SFU (subject F, 11-17yrs): ′ (11-20% = ′) | Cross-reactive T cell response (subject F, 11-17yrs): 19 SFU | Cross-reactive T cell response (subject G, 11-17yrs): 6 SFU | Cross-reactive T cell response (subject H): 1 SFU | Cross-reactive T cell response [1]: 2 SFU | Significant response as a percentage of maximal peptide SFU (subject J): ′′′ (41-70% = ′′′) | Cross-reactive T cell response [2]: 79 SFU | Significant response as a percentage of maximal peptide SFU (subject K): ′′ (21-40% = ′′) | Cross-reactive T cell response [3]: 20 SFU | Cross-reactive T cell response (subject P, 11-17yrs): 14 SFU | Significant response as a percentage of maximal peptide SFU (subject Q, 11-17yrs): ′′ (21-40% = ′′) | Cross-reactive T cell response (subject Q, 11-17yrs): 29 SFU | Significant response as a percentage of maximal peptide SFU (subject T, 11-17yrs): ′′′ (41-70% = ′′′) | Cross-reactive T cell response (subject T, 11-17yrs): 41 SFU | Significant response as a percentage of maximal peptide SFU (subject U, 11-17yrs): ′′ (21-40% = ′′) | Cross-reactive T cell response (subject U, 11-17yrs): 18 SFU | Significant response as a percentage of maximal peptide SFU (subject V): + (>70% = +) | Cross-reactive T cell response [4]: 25 SFU | Cross-reactive T cell response [5]: 3 SFU | Cross-reactive T cell response [6]: 8 SFU | Significant response as a percentage of maximal peptide SFU (subject five): + (>70% = +) | Cross-reactive T cell response [7]: 42 SFU | Cross-reactive T cell response (subject nine, 11-17yrs): 1 SFU | Cross-reactive T cell response [8]: 6 SFU | Cross-reactive T cell response [9]: 8 SFU | Cross-reactive T cell response [10]: 0 SFU | Significant response as a percentage of maximal peptide SFU (subject two): ′′ (21-40% = ′′) | Cross-reactive T cell response [11]: 26 SFU
